Data published in patent publication US6479531B1, “Gastrin and cholecystokinin receptor ligands” (James Black Foundation Limited, priority 1998, dated 2002).

Key:
[1] = biological target: T1, CCKB receptor (Mus musculus, UniProt P56481); experiment: CCKB receptor radioligand binding assay in mouse cortical membranes; conditions: [125I]-CCK8(S) 200 pM, 150 min at 21±3°, read-out: CCKB pKi (converted)
T1 construct: The whole brains from male mice (CD1 22-25 g; Charles River) were removed; from tissue; host or cells: cerebral cortex membranes of male CD1 mice
T1 sequence (P56481 1-453): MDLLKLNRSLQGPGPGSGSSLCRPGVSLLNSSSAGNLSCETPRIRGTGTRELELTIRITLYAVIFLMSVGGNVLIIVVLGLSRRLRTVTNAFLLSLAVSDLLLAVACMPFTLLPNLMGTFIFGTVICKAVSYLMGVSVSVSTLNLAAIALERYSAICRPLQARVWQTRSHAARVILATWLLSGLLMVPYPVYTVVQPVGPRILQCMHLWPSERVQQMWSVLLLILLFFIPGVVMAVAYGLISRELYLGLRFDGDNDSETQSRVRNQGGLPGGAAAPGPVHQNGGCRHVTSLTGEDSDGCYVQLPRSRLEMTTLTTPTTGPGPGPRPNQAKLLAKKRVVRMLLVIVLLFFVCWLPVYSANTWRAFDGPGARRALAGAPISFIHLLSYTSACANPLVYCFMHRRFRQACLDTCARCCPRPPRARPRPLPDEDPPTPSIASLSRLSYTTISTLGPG
How it was run: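 Bound radioactivity was gamma-counted after rapid GF/B filtration and cold 50 mM Tris-HCl (pH 7.4) washes. The tissue was cerebral cortex from male CD1 mice, prepared as twice-centrifuged membranes in pH 7.2 HEPES/NaCl/KCl/MgCl2/EDTA buffer with bacitracin at 20 mg/ml original wet weight.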

[2] = biological target: T2, gastrin receptor (Rattus norvegicus, UniProt P30553); experiment: gastrin antagonist activity in immature rat stomach assay (pentagastrin dose-response, acid secretion); conditions: isolated immature rat stomach, cumulative pentagastrin dose-response curves, read-out: Gastrin pKb (converted)
T2 construct: The stomach was excised and flushed with ca. 1 ml of unbuffered physiological saline solution; from tissue; host or cells: isolated whole stomach of immature rats (ca. 21 days old)
T2 sequence (P30553 1-452): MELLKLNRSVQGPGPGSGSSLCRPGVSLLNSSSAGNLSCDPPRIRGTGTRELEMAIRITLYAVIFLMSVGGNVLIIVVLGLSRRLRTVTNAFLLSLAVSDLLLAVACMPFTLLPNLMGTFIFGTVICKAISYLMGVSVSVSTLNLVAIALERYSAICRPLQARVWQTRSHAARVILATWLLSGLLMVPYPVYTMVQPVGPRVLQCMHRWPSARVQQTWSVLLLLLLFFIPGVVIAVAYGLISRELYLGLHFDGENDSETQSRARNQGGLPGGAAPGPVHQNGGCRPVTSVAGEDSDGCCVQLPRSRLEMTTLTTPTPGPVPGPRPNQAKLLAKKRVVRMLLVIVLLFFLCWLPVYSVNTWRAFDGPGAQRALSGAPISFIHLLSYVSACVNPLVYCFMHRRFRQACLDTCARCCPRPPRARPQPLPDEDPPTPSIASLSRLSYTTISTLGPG
How it was run: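 Isolated, lumen-perfused stomach from immature rats (33-50 g, ca. 21 days) in a 37° organ bath with 3×10^−8 M 5-methylfurmethide, gassed 95% O2/5% CO2. Compound added serosally after 120 min stabilisation; cumulative pentagastrin dose-response curves begun 60 min later, acid secretion followed by perfusate pH.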

SMILES	Ki [1] [nM]	Kb [2] [nM]
O=C(O)c1cccc(NC(=O)c2nc(-c3ccc(O)cc3)[nH]c2CCC23CC4CC(CC(C4)C2)C3)c1 [Example 63, 3-{[5-(2-Adamantan-1-yl-ethyl)-2(4-hydroxy-phenyl)-1H-imidazole-4-carbonyl]-amino}-benzoic Acid]	1100	1620
CCC(CC)c1nc(C(=O)Nc2ccc(C)c(C(=O)O)c2)c(CCC23CC4CC(CC(C4)C2)C3)[nH]1 [Example 113, 5{-[5-(2-Adamantan-1-yl-ethyl)-2-(1-ethyl-propyl)-1H-imidazole-4-carbonyl]-amino}-2-methyl-benzoic Acid]	7.24	5.5
Cc1cc(C)c(-c2nc(C(=O)Nc3cccc(C(=O)O)c3)c(CCC34CC5CC(CC(C5)C3)C4)[nH]2)c(C)c1 [Example 154, 3-{[5-(2-Adamantan-1-yl-ethyl)-2-(2,4,6-trimethyl-phenyl)-1H-imidazole-4-carbonyl]-amino}-benzoic Acid]	24.5	8.71
O=C(O)c1cccc(NC(=O)c2nc(-c3ccccn3)[nH]c2CCC23CC4CC(CC(C4)C2)C3)c1 [Example 178, 3-{[5-(2-Adamantan-1-yl-ethyl)-2-pyridine-2-yl-1H-imidazole-4-carbonyl]-amino}-benzoic Acid]	245	166
Cc1ccc(NC(=O)c2nc(-c3c(C)cccc3C)[nH]c2CCC23CC4CC(CC(C4)C2)C3)cc1C(=O)O [Example 153, 5-{[5-(2-Adamantan-1-yl-ethyl)-2-(2,6-dimethyl-phenyl)-1H-imidazole-4-carbonyl]-amino}-2-methyl-benzoic Acid]	4.9	57.5
O=C(O)c1cccc(NC(=O)c2nc(-c3ccc(F)cc3F)[nH]c2CCC23CC4CC(CC(C4)C2)C3)c1 [Example 60, 3-{[5-(2-Adamantan-1-yl-ethyl)-2-(2,4-difluoro-phenyl)-1H-imidazole-4-carbonyl]-amino}-benzoic Acid]	141	7.76
Cc1ccc(NC(=O)c2nc(-c3ccccc3C)[nH]c2CCC2CCCCC2)cc1C(=O)O [Example 169, 5-{[5-(2-Cyclohexyl-ethyl)-2-o-tolyl-1H-imidazole-4-carbonyl]-amino}-2-methyl-benzoic Acid]	132	75.9
Cc1ccc(NC(=O)c2nc(C3CCCCC3)[nH]c2CCC23CC4CC(CC(C4)C2)C3)cc1C(=O)O [Example 135, 5-{[5-(2-Adamantan-1-yl-ethyl)-2-cyclohexyl-1H-imidazole-4-carbonyl]-amino}-2-methyl-benzoic Acid]	6.17	22.4
CC(C)C1CCC(c2nc(C(=O)Nc3cccc(C(=O)O)c3)c(CCC34CC5CC(CC(C5)C3)C4)[nH]2)CC1 (centres unmarked) [Example 194, 3-{[5-(2-Adamantan-1-yl-ethyl)-2-(4-isopropyl-cyclohexyl)-1H-imidazole-4-carbonyl]-amino}-benzoic Acid]	158	525
Cc1cc(F)ccc1-c1nc(C(=O)Nc2cccc(C(=O)O)c2)c(CCC23CC4CC(CC(C4)C2)C3)[nH]1 [Example 96, 3-{[5-(2-Adamantan-1-yl-ethyl)-2-(4-fluoro-2-methyl-phenyl)-1H-imidazole-4-carbonyl]-amino}-benzoic Acid]	166	12.3
O=C(O)c1cccc(NC(=O)c2nc(CC34CC5CC(CC(C5)C3)C4)[nH]c2CCc2ccccc2)c1 [Example 86, 3-[(2-Adamantan-1-ylmethyl-5-phenethyl-1H-imidazole-4-carbonyl)-amino]-benzoic Acid]	1020	741
O=C(O)c1cccc(NC(=O)c2nc(C3CCCCC3)[nH]c2CCC2CCCCC2)c1 [Example 168, 3-{[2-Cyclohexyl-5-(2-cyclohexyl-ethyl)-1H-imidazole-4-carbonyl]-amino}-benzoic Acid]	245	64.6
O=C(O)c1cccc(NC(=O)c2nc(-c3c(F)cccc3F)[nH]c2CCC23CC4CC(CC(C4)C2)C3)c1 [Example 61, 3-{[5-(2-Adamantan-1-yl-ethyl)-2-(2,6-difluoro-phenyl)-1H-imidazole-4-carbonyl]-amino}-benzoic Acid]	148	31.6
